Test results as given in patent US20220236255A1, “Self-Contained Responsive Biological Systems and Methods” (Arizona Board of Regents on Behalf of the University of …, priority 2019, published 2022).
Like-named read-outs stand apart in the source and are kept apart here.

Legend:
[1] = test system: SK-MEL-28 cells; test: Modified MTT drug response assay, withaferin A, 72 hours; type: cell-based, human; details: WFA 72 hours, read-out: IC50 (concentration resulting in 50% of cell death)
Method: A modified MTT experiment was developed from CellTiter 96 NonRadioactive Cell Proliferation Assay kit (Promega). Treated leaves were cut into 1×1 cm sized pieces and fit to the bottom of an untreated 48-well plate. 0.75×0.75 cm inserts were placed in the well on the top of the leaf, cells were plated at 10,000 cells/insert and incubated at 37° C. with 5% CO2 atmosphere. After 24 hours, the inserts were removed and leaves with attached cells were cut and re-plated into non-treated 96-well plates. In parallel, cells were also directly seeded into a treated 96-well plate at a concentration of 5000 cells/well. The medium was refreshed every 72 hours. Tetrazolium component was added at day 1, 3, 5 and 7 and absorbance of formazan product was measured at 570 nm by using Epoch microplate spectrophotometer (Biotek Instruments). For the drug response assay, withaferin A (WFA) was added at concentrations ranging from 0.156 to 40 μM and incubated for 72 hours prior to the addition of the […]. […]
Microphthalmia-associated Transcription Factor (MITF) is a lineage-determining transcription factor critical for regulation of the melanocytic lineage during development and implicated as both a melanoma tumor suppressor and oncogene. […] Gene expression was then analyzed by qRT-PCR for MITF and three genes of the MITF-high expression signature (SOX10, MLANA and TYR). […]

[2] = test system: organoids of GFP-tagged glioblastoma U87 cells and RFP-tagged neural progenitor cells (NPCs); test: Organoid fluorescence (cell viability) after everolimus pre-treatment and irradiation; type: cell-based, human; details: 10 nM everolimus for 24 hours before 2 Gy-irradiation; over one week
Method: (§1) Thus, the effect of a rapamycin analog, everolimus, on human cells was investigated using an in vitro organoids model. GFP-tagged glioblastoma U87 cells were cultured in presence of RFP-tagged neural progenitor cells (NPCs), differentiated from dermal fibroblasts reprogrammed to induced pluripotent stem cells, to form organoids. The organoids were exposed to 10 nM everolimus for 24 hours before 2 Gy-irradiation. […] This has been confirmed by qRT-PCR where Glast mRNA level (glioblastoma biomarker) decreases whereas SOX2 and Nestin mRNA levels (NPCs biomarkers) increase in irradiated organoids pre-treatment with everolimus (FIGS. 27A-27C).

[3] = test system: Glast, SOX2 and Nestin mRNA in U87/NPC organoids; test: qRT-PCR of biomarker mRNA in everolimus-treated irradiated organoids; type: cell-based, human; details: irradiated organoids pre-treated with everolimus; qRT-PCR at day 10 after irradiation
Method: as §1

[4] = test system: RFP-transfected dermal fibroblasts spheroids; test: Growth of irradiated dermal fibroblast spheroids pre-treated with everolimus; type: cell-based; details: everolimus 24 h before 4 Gy-irradiation; growth monitored for 8 days
Method: FIG. 33 RFP-transfected dermal fibroblasts spheroids have been exposed to different concentrations of everolimus 24 h before 4 Gy-irradiation and their growth monitored for 8 days.

SMILES: CC1=C(CO)C(=O)O[C@@H]([C@@H](C)[C@H]2CC[C@H]3[C@@H]4C[C@H]5O[C@]56[C@@H](O)C=CC(=O)[C@]6(C)[C@H]4CC[C@]23C)C1 [WFA, withaferin A]
- IC50 ([1]; SK-MEL-28 cells seeded on decellularized spinach leaf scaffold): 5.2 µM
- IC50 ([1]; SK-MEL-28 cells seeded on stiff substrate (TCPS)): 1.1 µM

SMILES: CO[C@H]1C[C@@H]2CC[C@@H](C)[C@@](O)(O2)C(=O)C(=O)N2CCCC[C@H]2C(=O)O[C@H]([C@H](C)C[C@@H]2CC[C@@H](OCCO)[C@H](OC)C2)CC(=O)[C@H](C)/C=C(\C)[C@@H](O)[C@@H](OC)C(=O)[C@H](C)C[C@H](C)/C=C/C=C/C=C/1C [everolimus]
- GFP fluorescence intensity (U87 cells) compared to vehicle-treated organoids after irradiation [2]: decreases
- RFP fluorescence signal (NPCs) compared to vehicle-treated organoids after irradiation [2]: increases
- Glast mRNA level (glioblastoma biomarker) [3]: decreases
- Nestin mRNA level (NPCs biomarker) [3]: increase
- SOX2 mRNA level (NPCs biomarker) [3]: increase
- growth of irradiated spheroids compared to non-pretreated spheroids [4]: increased
